PMC3197876 (Journal of medicinal chemistry, 2011)
“Also recorded” adds a separate entry of the source. Like-named read-outs stand apart in the source and are kept apart here.

Legend:
α4β2 nAChR = α4β2 nAChR (Rattus norvegicus, UniProt P09483+P12390); format: binding; settings: ratio of Ki values
α4β2* nAChR (native) = α4β2* nAChR (native) (Rattus norvegicus, UniProt P09483+P12390); test: [3H]epibatidine binding competition, rat forebrain membranes
5-HT5A = 5-HT5A (Homo sapiens, UniProt P47898); test: PDSP primary binding screen; settings: read-out: %Inhibition 5-HT5A
β3 adrenergic receptor = β3 adrenergic receptor (Homo sapiens, UniProt P13945); test: PDSP primary binding screen; settings: read-out: %Inhibition β3
[1] = target: H1 histaminergic receptor (Homo sapiens, UniProt P35367); test: PDSP primary binding screen; settings: read-out: %Inhibition H1
M5 muscarinic receptor = target: T1, M5 muscarinic receptor (Homo sapiens, UniProt P08912); test: PDSP primary binding screen; settings: read-out: %Inhibition M5
T1 sequence (P08912 1-532): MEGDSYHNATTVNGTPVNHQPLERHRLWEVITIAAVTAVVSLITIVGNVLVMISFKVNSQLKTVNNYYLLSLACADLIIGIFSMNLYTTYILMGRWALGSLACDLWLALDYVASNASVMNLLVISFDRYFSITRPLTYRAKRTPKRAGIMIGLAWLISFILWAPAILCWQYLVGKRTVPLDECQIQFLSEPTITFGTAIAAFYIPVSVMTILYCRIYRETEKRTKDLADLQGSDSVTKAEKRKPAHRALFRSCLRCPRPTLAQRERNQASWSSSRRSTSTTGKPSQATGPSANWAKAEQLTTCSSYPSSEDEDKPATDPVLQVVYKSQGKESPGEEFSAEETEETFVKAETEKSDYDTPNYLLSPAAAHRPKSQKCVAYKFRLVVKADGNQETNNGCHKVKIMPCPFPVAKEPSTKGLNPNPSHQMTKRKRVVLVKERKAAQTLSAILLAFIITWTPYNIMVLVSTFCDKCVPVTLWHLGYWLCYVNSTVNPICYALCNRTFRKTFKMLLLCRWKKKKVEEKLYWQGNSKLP

[2] = target: DAT: Dopamine Transporter (Homo sapiens, UniProt Q01959); test: PDSP primary binding screen; settings: read-out: %Inhibition DAT
BALB/cJ male mice = format: in vivo, mouse
β2* nAChR = β2* nAChR (Mus musculus, UniProt O70174+Q9ERK7); test: β2* nAChR ex vivo receptor occupancy in the thalamus; settings: for receptor occupancy at 3 mg/kg: mouse, ip, read-out: ex vivo receptor occupancy at β2* receptors
[3] = In vitro metabolism with human liver microsomes; format: in vitro ADME; settings: 1 µM
[4] = In vitro metabolism with mouse liver microsomes; format: in vitro ADME; settings: 1 µM
[5] = system: nine different CYP450 enzymes; test: CYP450 inhibition; format: in vitro ADME
human α4β2-nAChR = human α4β2-nAChR (Homo sapiens, UniProt P17787+P43681); test: 86Rb+ efflux assay in SH-EP1-hα4β2 cells; settings: 86Rb+ ion flux assay
[6] = intraperitoneal, 1 mg/kg, 30 min before test

Compound	selectivity for α4β2- over α3β4-nAChR (α4β2 nAChR)	Ki (α4β2* nAChR (native)) [nM]	immobility in forced swim test (BALB/cJ male mice; [6])	immobility in forced swim test (BALB/cJ male mice; intraperitoneal, 3 mg/kg)	immobility in forced swim test (BALB/cJ male mice; oral, 10 mg/kg)	receptor occupancy at 3 mg/kg (β2* nAChR) [%]	functional characterization at α4β2-nAChRs (human α4β2-nAChR)	also measured
Cl.OCCCc1cc(-c2cncc(OC[C@@H]3CCN3)c2)on1 [Compound 3, 3-[5-[5-(2(S)-Azetidinylmethoxy)-3-pyridyl]-3-isoxazolyl]-1-propanol Hydrochloride]	~15,000 fold	1.9 ± 0.3	insignificant trend	significant reduction in immobility	decreased the time immobile; also recorded: reduced immobility	60 to 70	partial agonist	inhibition at 10 µM (5-HT5A): -17.8%; inhibition at 10 µM (β3 adrenergic receptor): -17.7%; inhibition at 10 µM [1]: -19.9%; inhibition at 10 µM (M5 muscarinic receptor): -18.9%; inhibition at 10 µM [2]: -10.1%; immobility in forced swim test (BALB/cJ male mice; oral, 1 and 3 mg/kg): failed to show significant activity; immobility in forced swim test (Figure 5) (BALB/cJ male mice; oral, lowest dose): slightly higher; metabolism with human liver microsomes [3]: no detectable metabolism; metabolism with mouse liver microsomes [4]: no detectable metabolism; inhibitory potential towards nine different CYP450 enzymes [5]: no significant inhibition
Cl.OCc1cc(-c2cncc(OC[C@@H]3CCN3)c2)on1 [Compound 4, 5-[5-(2(S)-Azetidinylmethoxy)-3-pyridyl]-3-isoxazolylmethanol Hydrochloride]	20,000 fold	0.61 ± 0.1	–	–	–	60 to 70	partial agonists	immobility in forced swim test (Figure 3) (BALB/cJ male mice; intraperitoneal, highest dose only): insignificant trend
Cl.OCCc1cc(-c2cncc(OC[C@@H]3CCN3)c2)on1 [Compound 5, 2-[5-[5-(2(S)-Azetidinylmethoxyl)-3-pyridyl]-3-isoxazolyl]ethanol Hydrochloride]	–	–	significant reduction in immobility	significant reduction in immobility	decreased the time immobile	~80	–	immobility in forced swim test (Figure 5) (BALB/cJ male mice; oral, all doses tested): efficacious; receptor occupancy (Figure 4, in words) (β2* nAChR; 3 mg/kg intraperitoneal, mice): higher receptor occupancy
CN[C@H]1CC[C@@H](c2ccc(Cl)c(Cl)c2)c2ccccc21 [sertraline, reference compound]	–	–	–	–	–	–	–	immobility in forced swim test (Figure 5) (BALB/cJ male mice; positive control in oral study, 10 or 20 mg/kg): expected decrease in immobility; immobility in forced swim test (Figure 3) (BALB/cJ male mice; positive control, intraperitoneal, 10 or 20 mg/kg): expected decrease in immobility
